The source of these data is patent publication US10646553B2, “Use of recombinant human calcineurin B subunit” (HAIKOU QILI PHARMACEUTICAL CO., LTD., priority 2015, dated 2020).

Series [1] deals with transplantation tumor of human gastric cancer cell MGC-803 carcinoma in situ. Briefly: Bioluminescence detection (IVIS small animal live imaging) and necropsy of orthotopic MGC-803 tumour in nude mice. Type of series: in vivo, BALB/c nude mice. The text has this: (§1) In one embodiment of the present invention, according to the “Technical Guidelines for Non-Clinical Studies of Cytotoxic Antitumor Drugs” and “Guidelines for Pharmacodynamics of Antitumor Drugs”, IVIS Kinetics (a small animal live imaging system) was used to dynamically analyze the therapeutic effect of rhCNB for injection on the BALB/c nude mice bearing the human gastric cancer cell MGC-803 carcinoma in situ. Firstly, a BALB/c nude mouse model bearing subcutaneous transplantation tumor of human gastric cancer cell MGC-803 was established, and then a BALB/c nude mouse model bearing transplantation tumor in situ of human gastric cancer cell MGC-803 was established. […] Each experimental group is administered once daily for 15 consecutive days, except that the positive control high-dose administration group of cisplatin for injection is administered for 5 days. […] Animals were examined once using Caliper IVIS Kinetics (small animal live imaging system) before the first administration (on the administration day), every other 3 days after the first administration and on the 7th day after the last administration, respectively, and body weight was measured before each examination. At the end of the last examination, animals were sacrificed and roughly necropsied, and organs inoculated with tumor (including tumor tissues) were removed for pathological examination and immunohistochemical assay of apoptosis.
Human gastric cancer cell MGC-803 was routinely cultured in vitro, digested, centrifuged, and then prepared into a cell suspension with a concentration of approximately 1×10^7 cells/mL. The cells were inoculated subcutaneously into the right armpit of mice at an amount of 0.2 mL/mouse.
Well-grown subcutaneously transplanted tumors were removed and cut into tumor tissue blocks with a size of approximately 2×2×1 mm for use. Animals to be inoculated were feed 12 hours before surgical operation and subjected to gas anesthesia with isoflurane. The anaesthetized animals were placed in supine position. The skin 2˜5 mm below the xiphoid process was cut horizontally layer-by-layer on the left side to give an opening of about 1 cm. Stomach was pull out gently using a pincette and exposed. The tumor tissue block was placed above the side near the pylorus of greater curvature of stomach of the nude mice with surgical suture #1 by “purse-string suture”, so that the tumor tissue block was wrapped therein. The skin was sutured layer by layer and disinfected by Entoiodine, and then the animals were returned back to the cage for normal feeding. 7 days after surgery, the animals were examined using the small animal live imaging system, grouped, and administrated.
The route for administration was by tail vein injection.
Animals were detected once using Caliper IVIS Kinetics small animal live imaging system at the following time point: before the first administration (on the administration day), every other 3 days after the first administration, and on the 7th day after the last administration, respectively. The body weight was measured before each detection. A substrate solution (with a concentration of 15 mg/mL) was injected intraperitoneally according to 0.1 mL/10 g body weight and a bioluminescence detection was performed 10˜15 min after injection.
The data obtained from the experiments were statistically analyzed using SPSS analysis software, and the significance of difference between the administration groups and the vehicle control group, and among each administration group was compared.

The nature of series [2]: Survival of tumour-bearing animals during the experiment. In kind it is in vivo, BALB/c nude mice.
From the text: as §1
The high-, medium-, low-dose groups and progressively increasing-dose group of the test sample were administered once daily for 15 consecutive days;

Where [3] appears, read: SD, low-dose 1 mg/kg once daily 15 d, d3.
The mark [4] stands for this setting: SD, low-dose 1 mg/kg once daily 15 d, d6.
Setting [5] is: SD, low-dose 1 mg/kg once daily 15 d, d9.
Setting [6] is: SD, low-dose 1 mg/kg once daily 15 d, d12.
Where [7] appears, read: SD, low-dose 1 mg/kg once daily 15 d, d15.
The mark [8] stands for this setting: SG, high-dose 5 mg/kg once daily 5 d, d3.
The mark [9] stands for this setting: SG, high-dose 5 mg/kg once daily 5 d, d6.
Setting [10] is: X, 2 mg/kg once daily 15 d, d12.
The mark [11] stands for this setting: X, 2 mg/kg once daily 15 d, d15.

On to `N.N.[Cl][Pt][Cl]` [cisplatin for injection, cisplatin], for which the “Number of animals in which tumor is not detectable and not observed” value in series [1] (SD, low-dose 1 mg/kg once daily 15 d, d0) was 0; in series [1] (setting [3]), 0; in series [1] (setting [4]) it was 0; in series [1] (setting [5]) it was 0; in series [1] (setting [6]) it was 0; in series [1] (setting [7]), 0. Besides, the “Number of animals in which tumor is not detectable and not observed” value in series [1] (SD, low-dose 1 mg/kg once daily 15 d, recovery period d7) stood at 0; in series [1] (SG, high-dose 5 mg/kg once daily 5 d, d0), 0; in series [1] (setting [8]) it was 0; in series [1] (setting [9]), 0; in series [1] (SG, high-dose 5 mg/kg once daily 5 d, d9) it was 0; in series [1] (SG, high-dose 5 mg/kg once daily 5 d, d12) it was 0. Moreover, the “Number of animals in which tumor is not detectable and not observed” value in series [1] (SG, high-dose 5 mg/kg once daily 5 d, d15) came to 0; in series [1] (SG, high-dose 5 mg/kg once daily 5 d, recovery period d7), 0. In addition, the bioluminescence detection data result in series [1] (positive control high-dose group 5 mg/kg, after the 6th day administration) is reported as “sharp increase”. The “number of surviving animals” value in series [2] (SD, low-dose 1 mg/kg once daily 15 d, d0 before administration) was “(10)”; in series [2] (setting [3]), “(10)”; in series [2] (setting [4]), “(10)”; in series [2] (setting [5]), “(10)”; in series [2] (setting [6]) it was “(10)”; in series [2] (setting [7]) it was “(9)”. The “number of surviving animals” value was “(4)” in series [2] (SD, low-dose 1 mg/kg once daily 15 d, d21 (7th day after last administration)); “(10)” in series [2] (SG, high-dose 5 mg/kg once daily 5 d, d0 before administration); “(10)” in series [2] (setting [8]); “(10)” in series [2] (setting [9]). Moreover, the “cause of death of the animals” value in series [2] (during the experiment, preliminarily believed) is on record as “mainly due to drug toxicity”.
In the case of `CC[C@@]1(O)C(=O)OCc2c1cc1n(c2=O)Cc2cc3cc(O)ccc3nc2-1` [hydroxycamptothecin for injection, hydroxycamptothecin], the “Number of animals in which tumor is not detectable and not observed” value was determined as 0 in series [1] (X, 2 mg/kg once daily 15 d, d0); 0 in series [1] (X, 2 mg/kg once daily 15 d, d3); 0 in series [1] (X, 2 mg/kg once daily 15 d, d6); 0 in series [1] (X, 2 mg/kg once daily 15 d, d9); 0 in series [1] (setting [10]); 0 in series [1] (setting [11]). In series [1] (X, 2 mg/kg once daily 15 d, recovery period d7), the “Number of animals in which tumor is not detectable and not observed” value was 0. In addition, the “number of surviving animals” value in series [2] (X, 2 mg/kg once daily 15 d, d0 before administration) was “(10)”; in series [2] (X, 2 mg/kg once daily 15 d, d3), “(10)”; in series [2] (X, 2 mg/kg once daily 15 d, d6), “(9)”; in series [2] (X, 2 mg/kg once daily 15 d, d9) it was “(9)”; in series [2] (setting [10]) it was “(9)”; in series [2] (setting [11]) it was “(9)”. For the same compound, in series [2] (X, 2 mg/kg once daily 15 d, d21 (7th day after last administration)), the “number of surviving animals” value is “(7)”.
